Data as given in US10023593B2, “ALK kinase inhibitor, and preparation method and uses thereof” (BEIJING PEARL BIOTECHNOLOGY LIMITED LIABILITY COMPANY, priority 2014, dated 2018).

Tests used:
L1196M mutant ALK kinase = target: T1, L1196M mutant ALK kinase (Homo sapiens, UniProt Q9UM73, L1196M); assay: HTRF KinEASE-TK assay, inhibitory activity on L1196M mutant ALK kinase; format: biochemical; settings: L1196M mutant ALK 1 ng/μl, substrate 1 μM, ATP 5 μM, 30° C. 35 minutes, read-out: Inhibition on ALK kinases (L1196M mutant), IC50
T1 construct: purchased Sino-US Crown Bioscience, Inc. batch number ALKm_20110923
Source text: 2. Inhibitory Activities of the Compounds of the Present Invention on L1196M Mutant ALK Kinases
? experimental method ? HTRF KinEASE™-TK Assay kit from Cisbio company was used to detect inhibitory activities of the compounds on L1196M mutant ALK kinases.
(§1) ? instrument ? Envision 2104 plate reader from PerKinElmer company.
(§2) ? experiment material ? HTRF KinEASE™-TK Assay Kit (Cisbio company, catalog No. 62TK0PEC); L1196M mutant ALK kinase (produced by Sino-US Crown Bioscience, Inc., batch number ALKm_20110923); DTT (Gibco BRL company, catalog No. 15508-012); MgCl2 (Sigma Aldrich company, catalog No. M-2670); ATP (Sigma Aldrich company, catalog No. A-7699, batch number 051M7014V); DMSO (AMRESCO company, catalog No. 0231); EDTA (AMRESCO company, catalog No. 0105); 96 wells plates (for diluting compounds) (CITOTEST company, catalog No. Ref36020096D); OptiPlate™-384 (White), PerkinElmer company, catalog No. P12-004)
(§3) ? experimental condition ? Compounds (the final concentration of DMSO was 1%), the reaction substrate (the final concentration was 1 μM), ATP (the final concentration was 5 μM), and L1196M mutant ALK kinases (the final concentration was 1 ng/μl) were mixed respectively in a final volume of 10 μl reaction system (containing 5 mM MgCl2, 1× Kinase buffer, and 1 mM DTT). The mixture was reacted at 30° C. for 35 minutes after shaking for 30 seconds. After completion of the reaction, each well was added with 5 μl Sa-XL665 and 5 μl TK Antibody-Eu(K), and placed in the dark for 60 minutes to end the reaction after uniform mixing. The data was read from PerkinElmer EnVision plate reader ([…]), the 665/615 ratio was calculated, and the data was analyzed.
(§4) ? tested samples ? Compounds from the examples.
(§5) ? data analysis ? Minimum 665/615 ratio (Rmin, 665/615 ratio under the condition that 10.4 μM positive control drug LDK-378 was added)
(§6) Maximum 665/615 ratio (Rmax, 665/615 ratio under the condition that no compound was added)
(§7) Tested 665/615 ratio (Rcompound, 665/615 ratio under the condition that a given concentration of compound was added) Inhibition rate (%)=[1−(Rcompound−Rmin)/(Rmax−Rmin)]×100
(§8) ? data processing ? IC50 of compounds was calculated by using XLfit program in Excel.

NCI-H2228 cell line = assay: CellTiter-Glo cell proliferation inhibition on NCI-H2228 cell line; format: cell-based; settings: Homo sapiens, NCI-H2228, 96 h, NCI-H2228 cells, 5000 cells/well, 4 days drug treatment
Protocol: 3. Cell Proliferation Inhibitory Activities of the Compounds of the Present Invention on NCI-H2228 Cell Line
? experimental method ? CellTiter-Glo® Luminescent Cell Viability Assay kit from Promega company was used to detect cell proliferation inhibitory activities of the compounds on NCI-H2228 cell line.
? instrument ? Envision 2104 plate reader from PerKinElmer company; Vi-Cell XR cell counter from Beckman Counter company; MCO-18AIC CO2 incubator from SANYO company.
? experiment material ? CellTiter-Glo® Luminescent Cell Viability Assay Kit (Promega company, catalog No. G7573); NCI-H2228 cell line (ATCC, catalog No. CRL-5935); RPMI-1640 medium (HyClone company, catalog No. SH30809.01B); fetal bovine serum (FBS) (Gibco company, catalog No. 10099-141); trypsin (Trypsin) (Gibco company, catalog No. 25200-072); PBS (HyClone company, catalog No. SH30256.01B); 96 wells cell culture plate (Corning company, catalog No. 3610); DMSO (AMRESCO company, catalog No. 0231); 96 wells plates (for diluting compounds) (CITOTEST company, catalog No. Ref36020096D);
? experimental condition ? NCI-H2228 cells in exponential growth phase were collected and treated with trypsin (Trypsin), and viable cells were counted by Vi-Cell XR cell counter. Cell suspension was adjusted to 62500 cells/ml with culture medium (RPMI-1640+10% FBS). 80 μl cell suspension was added into each well of 96 wells cell culture plate so that the final cell number of NCI-H2228 cells was 5000 cells/well. The cells were cultivated in an incubator with an atmosphere of 37° C., 5% CO2 and 95% humidity for 2 hours and then each well was added with 20 μl compounds in RPMI-1640 medium solution (the final concentration of DMSO was 0.5%). 4 days after drug treatment, each well was added with 50 μl CellTiter-Glo solution which was previously thawed and equilibrated to room temperature, and mixed for 2 minutes with microplate shaker. After placing at room temperature for 10 minutes, luminescence value was measured by PerkinElmer Envision 2104 plate reader and the data was analyzed.
? tested samples ? Compounds of the examples.
? data analysis ? Luminescence value of DMSO solvent control (Vvehicle control, which is the mean luminescence value from DMSO solvent control group)
Tested luminescence value (Vsample, which is the luminescence value from given concentration of compounds group) Inhibition rate (%)=(1−Vsample/Vvehicle control)×100
as §8

Wild Type ALK kinase = target: T2, Wild Type ALK kinase (Homo sapiens, UniProt Q9UM73); assay: HTRF KinEASE-TK assay, inhibitory activity on wild type ALK kinase; format: biochemical; settings: wild type ALK 1 ng/μl, substrate 1 μM, 30° C. 35 minutes, read-out: Inhibition on ALK kinases (wildtype), IC50
T2 construct: purchased Sino-US Crown Bioscience, Inc. batch number ALK 20110607
Source text: 1. Inhibitory Activities of the Compounds of the Present Invention on Wild Type ALK Kinases
? experimental method ? HTRF KinEASE™-TK Assay kit from Cisbio company was used to detect inhibitory activities of the compounds on wildtype ALK kinases (wild type ALK kinases).
as §1
as §2, with “Wild Type” for “L1196M mutant”, “ALK 20110607);” for “ALKm_20110923);”, “A-7699);” for “A-7699, batch number 051M7014V);”
as §3, with “[…]),” for “5 μM),”, “Wildtype” for “L1196M mutant”
as §4, §5, §6, §7, §8

T1 sequence (Q9UM73 19-1620 L1196M): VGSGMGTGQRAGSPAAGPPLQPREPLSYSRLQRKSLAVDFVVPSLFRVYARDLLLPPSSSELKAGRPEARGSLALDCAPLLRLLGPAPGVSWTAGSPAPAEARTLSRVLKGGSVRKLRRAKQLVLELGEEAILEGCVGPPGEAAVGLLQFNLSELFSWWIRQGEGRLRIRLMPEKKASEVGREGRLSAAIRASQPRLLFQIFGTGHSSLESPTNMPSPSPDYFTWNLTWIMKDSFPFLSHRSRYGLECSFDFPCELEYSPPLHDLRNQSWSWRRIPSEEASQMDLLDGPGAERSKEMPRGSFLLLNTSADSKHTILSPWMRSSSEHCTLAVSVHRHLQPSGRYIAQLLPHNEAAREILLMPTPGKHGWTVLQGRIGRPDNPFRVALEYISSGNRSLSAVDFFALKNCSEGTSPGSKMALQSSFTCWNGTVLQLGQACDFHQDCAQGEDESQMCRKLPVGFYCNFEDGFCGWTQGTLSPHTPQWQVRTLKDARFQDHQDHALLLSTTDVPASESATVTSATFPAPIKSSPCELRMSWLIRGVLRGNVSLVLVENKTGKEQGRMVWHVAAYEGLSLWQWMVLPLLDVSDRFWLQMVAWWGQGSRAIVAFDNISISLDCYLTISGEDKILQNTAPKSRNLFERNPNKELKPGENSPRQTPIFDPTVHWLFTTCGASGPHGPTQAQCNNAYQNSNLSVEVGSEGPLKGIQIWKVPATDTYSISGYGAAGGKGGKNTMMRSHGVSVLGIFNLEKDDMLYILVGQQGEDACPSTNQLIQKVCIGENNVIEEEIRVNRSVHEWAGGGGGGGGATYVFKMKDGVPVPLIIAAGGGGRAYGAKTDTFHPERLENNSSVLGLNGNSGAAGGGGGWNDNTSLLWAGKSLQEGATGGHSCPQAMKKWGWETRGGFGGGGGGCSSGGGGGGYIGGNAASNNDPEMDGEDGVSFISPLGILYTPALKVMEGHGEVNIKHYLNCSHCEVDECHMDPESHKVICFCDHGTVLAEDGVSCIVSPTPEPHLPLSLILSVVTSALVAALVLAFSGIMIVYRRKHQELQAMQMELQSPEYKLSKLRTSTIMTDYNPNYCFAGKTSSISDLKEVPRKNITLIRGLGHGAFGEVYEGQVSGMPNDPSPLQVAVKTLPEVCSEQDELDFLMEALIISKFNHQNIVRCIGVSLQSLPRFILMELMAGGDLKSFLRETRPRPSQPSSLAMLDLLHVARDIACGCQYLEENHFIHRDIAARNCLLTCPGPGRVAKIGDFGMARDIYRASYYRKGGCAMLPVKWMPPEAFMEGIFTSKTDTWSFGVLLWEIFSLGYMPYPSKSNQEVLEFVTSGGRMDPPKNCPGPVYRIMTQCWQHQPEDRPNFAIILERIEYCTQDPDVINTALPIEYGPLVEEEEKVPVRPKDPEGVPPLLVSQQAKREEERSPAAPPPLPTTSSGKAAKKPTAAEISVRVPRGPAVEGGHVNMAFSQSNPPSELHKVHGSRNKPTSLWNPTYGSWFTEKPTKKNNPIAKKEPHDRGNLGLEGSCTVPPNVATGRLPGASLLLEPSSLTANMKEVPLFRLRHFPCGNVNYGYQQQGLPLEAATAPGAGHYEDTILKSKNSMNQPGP
T2 sequence (Q9UM73 19-1620): as the sequence (Q9UM73 19-1620 L1196M) above, with M1178L counted along it

Row | SMILES | IC50 (L1196M mutant ALK kinase) | IC50 (NCI-H2228 cell line) | IC50 (Wild Type ALK kinase)
1 | CNC(=O)CN1CCC(c2cc(OC)c(Nc3ncc(Cl)c(Nc4cc(C)n[nH]4)n3)cc2C)CC1 [Final product 216, reference compound] | 28 nM | 948 nM | 17 nM
2 | Cc1cc(Nc2ncc(C(F)(F)F)c(Nc3cn(C)nc3S(=O)(=O)C(C)C)n2)c(OC2CC2)cc1C1CCN(C)CC1 [Final product 209, N^2-[2-cyclopropoxy-4-(1-methyl-piperidin-4-yl)-5-methylphenyl]-N^4-[1-methyl-3-(isopropylsulfonyl)-1H-pyrazol-4-yl]-5-(trifluoromethyl)pyrimidin-2,4-diamine] | 9 nM | 71 nM | 3 nM
3 | Cc1cc(Nc2ncc(Cl)c(Nc3cn(C)nc3C#N)n2)c(OC2CC2)cc1C1CCN(C)CC1 [Final product 211, 5-chloro-N^2-[2-cyclopropoxy-4-(1-methyl-piperidin-4-yl)-5-methyl-phenyl]-N^4-[1-methyl-3-cyano-1H-pyrazol-4-yl]-pyrimidin-2,4-diamine] | 11 nM | 272 nM | 3 nM
4 | Cc1cc(Nc2ncc(Cl)c(Nc3cn(C)nc3S(=O)(=O)C(C)C)n2)c(OC2CC2)cc1C1CCN(C)C(C)C1 (centres unmarked) [Final product 92] | 5 nM | 48 nM | 2 nM
5 | CCN(CC)[C@H]1CC[C@@H](c2cc(OC3CC3)c(Nc3ncc(Cl)c(Nc4cn(C)nc4S(=O)(=O)C(C)C)n3)cc2C)CC1 [Final product 191] | 17 nM | 60 nM | 8 nM
6 | Cc1cc(Nc2ncc(Cl)c(Nc3cn(C)nc3S(=O)(=O)C(C)C)n2)c(OC2CC2)cc1C1CCN(C(C)C)CC1 [Final product 123, 5-chloro-N^2-[2-cyclopropoxy-4-(1-isopropylpiperidin-4-yl)-5-methyl-phenyl]-N^4-[1-methyl-3-(isopropylsulfonyl)-1H-pyrazol-4-yl]-pyrimidin-2,4-diamine] | 5 nM | – | 2 nM
7 | Cc1cc(Nc2ncc(Cl)c(Nc3cn(C)nc3S(=O)(=O)C3CCC3)n2)c(OC2CC2)cc1C1CCN(C)CC1 [Final product 52] | 15 nM | 76 nM | 2 nM
8 | Cc1cc(Nc2ncc(Cl)c(Nc3cn(C)nc3S(=O)(=O)CC(C)C)n2)c(OC(C)C)cc1C1CN(S(C)(=O)=O)C1 [Final product 169] | 43 nM | 133 nM | 68 nM
9 | Cc1cc(Nc2ncc(Cl)c(Nc3cn(C)nc3S(=O)(=O)C(C)C)n2)c(OC2CC2)cc1C1CCN(C(=O)C(C)C)CC1 [Final product 163, 1-isobutyryl-4-(4-(5-chloro-4-(3-(isopropylsulfonyl)-1-methyl-1H-pyrazol-4-amino)pyrimidin-2-amine)-5-cyclopropoxy-2-methylphenyl)piperidine] | 29 nM | 149 nM | 26 nM
10 | Cc1cc(Nc2ncc(C)c(Nc3cn(C)nc3S(=O)(=O)C(C)C)n2)c(OC2CC2)cc1C1CCN(C)CC1 [Final product 72] | 6 nM | 69 nM | 1 nM
11 | Cc1cc(Nc2nc(Nc3cc(C)c(C4CCN(S(C)(=O)=O)CC4)cc3C)ncc2Cl)n[nH]1 [Final product 217, reference compound] | 69 nM | 1130 nM | 20 nM
12 | Cc1cc(Nc2ncc(C#N)c(Nc3cn(C)nc3S(=O)(=O)C(C)C)n2)c(OC2CC2)cc1C1CCN(C)CC1 [Final product 210, N^2-[2-cyclopropoxy-4-(1-methyl-piperidin-4-yl)-5-methyl-phenyl]-N^4-[1-methyl-3-(isopropylsulfonyl)-1H-pyrazol-4-yl]-5-(cyano)pyrimidin-2,4-diamine] | 4 nM | 87 nM | 2 nM
13 | Cc1cc(Nc2nc(Nc3cc(C)c(C4CCN(C(C)C)CC4)cc3C)ncc2Cl)n[nH]1 [Final product 213, reference compound] | 22 nM | 964 nM | 19 nM
14 | Cc1cc(Nc2ncc(Cl)c(Nc3cn(C)nc3S(=O)(=O)C(C)C)n2)c(C(C)C)cc1C1CCN(C)CC1 [Final product 33] | 28 nM | 660 nM | 12 nM
15 | Cc1cc(Nc2ncc(F)c(Nc3cn(C)nc3S(=O)(=O)C(C)C)n2)c(OC2CC2)cc1C1CCN(C)CC1 [Final product 70] | 18 nM | 81 nM | 2 nM
16 | Cc1nc(S(=O)(=O)C(C)C)c(Nc2nc(Nc3cc(C)c(C4CCN(C)CC4)cc3OC3CC3)ncc2Cl)s1 [Final product 113] | 22 nM | 150 nM | 6 nM
17 | CCN(CC)[C@H]1CC[C@H](c2cc(OC3CC3)c(Nc3ncc(Cl)c(Nc4cn(C)nc4S(=O)(=O)C(C)C)n3)cc2C)CC1 [Final product 192] | 12 nM | 68 nM | 9 nM
18 | Cc1cc(Nc2nc(Nc3cc(C)c(C4CCCNC4)cc3C)ncc2Cl)n[nH]1 (centres unmarked) [Final product 214, reference compound] | 54 nM | 1240 nM | 22 nM
